Experimental data published in article PMC7961380, “A Systematic Study of the In Vitro Pharmacokinetics and Estimated Human In Vivo Clearance of Indole and Indazole-3-Carboxamide Synthetic Cannabinoid Receptor Agonists Detected on the Illicit Drug Market” (Molecules, 2021).
Where “and” joins values, the source holds several entries; their conditions need not be identical. Equal values may be shown once. Read-outs that look alike come from different tables or passages of the source.

How the values were obtained:
[1] = Chromatographic hydrophobicity index (CHI) log D at pH 7.4; conditions: for chromatographic logD: reversed-phase HPLC, Acquity BEH C18 column
Procedure: Chromatographic hydrophobicity index (CHI) log D samples (see below) were analysed using high-performance liquid chromatography (HPLC) with a Shimadzu Nexera X2 HPLC coupled to a Shimadzu SPD-30 MA photodiode array detector (PDA) (Shimadzu, Kyoto, Japan). […] The sample chamber was maintained at 25 °C. Gradient elution was performed, with mobile phase (MP) consisting of ammonium acetate in water (10 mM, pH 7.4) (MP A) and acetonitrile (MP B).
A calibration mix of ten compounds at 10 µg mL^−1 in 1:1 (v/v) water:ACN was used (theophylline, phenyltetrazole, benzimidazole, colchicine, phenyltheophilline, acetophenone, indole, propiophenone, butyrophenone and valerophenone (all Sigma-Aldrich)). Test compounds were prepared at 0.25 mM in 1:1 (v/v) water:ACN. Samples (n = 2 for calibration standards; n = 1 for test compounds) were analysed using UPLC-PDA as described above. Retention times of calibration compounds are used to calculate retention factor (k), which is plotted against literature CHI values for each compound.
Where tr is the retention time of the analyte and t0 is the retention time of an unretained compound
Calculation of chromatographic hydrophobicity index (CHI)
CHI = (𝑘 x slope) − intercept Eqn.4
Where k is the retention factor of the analyte.
Calculation of CHI Log D [1]
Where CHI is the chromatographic hydrophobicity index obtained using Equation 4

[2] = HLM, ref 14 (THJ-018, THJ-2201), 15 (NNEI, MN-18), 106 (NM-2201), 107 (BIM-2201), 108 (STS-135), 16 (AB-PINACA, 5F-AB-PINACA), 54 (5F-MDMB-PINACA), 69 (AB-FUBINACA), 17 (ADB-FUBINACA), 97 (FDU-PB-22, FUB-PB-22), cited from earlier work; for CLint micr / t1/2: 95 (Cumyl-PICA, 5F-Cumyl-PICA), 109 (5F-APP-PICA, 5F-APP-PINACA; for CLint micr: 73 (5F-AMB-PINACA); for t1/2 / CLint: 57 (AMB-4en-PICA); for t1/2: 73 (AMB-PINACA, 5F-AMB-PINACA)
[3] = Metabolic stability, pooled human liver microsome incubations; conditions: for CLH prediction lower than literature prediction without PPB / EH prediction lower than literature prediction without PPB: vs refs 69 (AB-FUBINACA), 54 (5F-MDMB-PINACA); for CLint scaled at 0.5 µM: pH 7.4, Intrinsic clearance
[4] = Metabolic stability, pooled human cryopreserved hepatocyte incubations; conditions: human, hepatocytes
[5] = tested on: pooled human cryopreserved hepatocytes (pHHeps); test: as above
[6] = Short-term plasma stability with and without esterase inhibitors; conditions: human, pH 7.4, Parent Compound Remaining (%), 3 h, 37 °C
Procedure: (§1) The pooled plasma used for both plasma stability and plasma binding studies originated from 50 donors, collected as whole blood from donors in the United States at an FDA-approved collection center, processed into plasma by centrifugation and immediately frozen (Innovative Research; Novi, MI, USA) and purchased from Patricell (Nottingham, UK). […] Stock solutions were prepared in DMSO. […] For incubations without inhibitor an equivalent volume of DMSO was included. Plasma mixture was pre-incubated at 37 °C for 5 min. Test compounds (5 µM) and procaine (positive control, 50 µM) were added to pre-warmed plasma mixture containing inhibitors. Incubation volume was 1 mL. Samples were mixed and 80 µL was immediately sampled and quenched into 200 µL ACN spiked with donepezil (internal standard (IS), 50 ng mL^−1). […] Peak area ratio of analyte to IS was used to determine half-lives of test compounds in plasma, both with and without the presence of esterase inhibitors.
(§2) The human plasma used was pooled from 50 donors, and was collected as whole blood from donors in
(§3) the United States at an FDA-approved collection center, processed into plasma by centrifugation and
(§4) The stability of the tested SCRAs, select metabolites and procaine control in pooled human plasma over
(§5) inhibitors bis(4-nitrophenyl) phosphate (BNPP) and phenyl methyl sulphonyl fluoride (PMSF) is

[7] = Plasma protein binding by equilibrium dialysis; assay type: in vitro ADME, human; conditions: human, pooled human plasma, pH 7.4, equilibrium dialysis 5 h, 37 °C
[8] = tested on: human hepatocytes (HHeps); conditions: HHeps (asterisk); ref 13 (JWH-122, MAM-2201, Cl-, Br-, I-JWH-122), 105 (AM1220); cited from earlier work
[9] = cited from earlier work
in vitro = conditions: human, plasma, pH 7.4
Procedure: as §1, §2, §3, §4, §5

[10] = pHHeps, 99x10^6 hepatocytes per gram liver
[11] = pHLM, scaling factor 32 mg microsomal protein per gram liver
[12] = pHLM, scaling factor 45 mg microsomal protein per gram liver

## COC(=O)C(NC(=O)c1nn(CCCCF)c2ccccc12)C(C)(C)C (stereo not shown) [4F-MDMB-BINACA (4), methyl 2-[1-(4-fluorobutyl)-1H-indazole-3-carboxamido]-3,3-dimethylbutanoate]
[1]
  chromatographic logD: 4.18

## COC(=O)[C@@H](NC(=O)c1nn(CCCCCF)c2ccccc12)C(C)C [5F-AMB-PINACA (10), methyl [1-(5-fluoropentyl)-1H-indazole-3-carbonyl]valinate]
[2]
  CLint micr: 670 µL/min/mg
  t1/2: 1.0 min
[1]
  chromatographic logD: 4.07

## COC(=O)C(NC(=O)c1cn(CCCCCF)c2ccccc12)C(C)(C)C (stereo not shown) [5F-MDMB-PICA (3), methyl 2-[1-(5-fluoropentyl)-1H-indole-3-carboxamido]-3,3-dimethylbutanoate]
[1]
  chromatographic logD: 4.06

## COC(=O)C(NC(=O)c1nn(CCCCCF)c2ccccc12)C(C)(C)C (stereo not shown) [5F-MDMB-PINACA (2), methyl 2-[1-(5-fluoropentyl)-1H-indazole-3-carboxamido]-3,3-dimethylbutanoate]
[2]
  CLint micr: 271 µL/min/mg
  t1/2: 3.1 min
  CLint: 256.2 mL/min/kg
[1]
  chromatographic logD: 4.5
[3]; pHLM
  CLH prediction lower than literature prediction without PPB: 4 fold
  EH prediction lower than literature prediction without PPB: 4 fold

## COC(=O)[C@@H](NC(=O)c1nn(Cc2ccc(F)cc2)c2ccccc12)C(C)(C)C [(S)-MDMB-FUBINACA (6)]
[4]; Intrinsic clearance, CLint, pHHeps, alternative hepatocyte cell density 99x10^6 hepatocytes per gram liver
  CLint scaled at 0.5 µM: 275 mL/min/kg
[4]; T1/2 (min), pHHeps 0.25 million cells mL^−1, 0.5 µM, 37 °C, n ≥ 3 ± SD
  half-life at 0.5 µM: 26 ± 5 min
[5]; from pHHeps CLint, well-stirred model with plasma fu, Q 21 mL min^−1 kg^−1
  Predicted In Vivo Hepatic Clearance, CLH: 1.39 mL/min/kg and 1.39 ± 0.27 mL/min/kg
[5]; from pHHeps incubations
  Hepatic extraction ratio, EH: 0.07 and 0.07 ± 0.013
[5]; [10]
  Hepatic extraction ratio, EH: 0.06 ± 0.012
  Predicted in vivo hepatic clearance, CLH: 1.29 ± 0.25 mL/min/kg
[5]; pHHeps, 3 min
  % parent compound remaining, Average: 90.3%
[5]; pHHeps, 6 min
  % parent compound remaining, Average: 73.3%
[5]; pHHeps, 9 min
  % parent compound remaining, Average: 80.1%
[5]; pHHeps, 15 min
  % parent compound remaining, Average: 73.3%
[5]; pHHeps, 30 min
  % parent compound remaining, Average: 38.8%
[5]; pHHeps, 45 min
  % parent compound remaining, Average: 17.3%
[5]; pHHeps, 60 min
  % parent compound remaining, Average: 9.1%
[6]; Esterase Inhibitors, pH 7.4, BNPP and PMSF 500 µM each
  remaining at 3 h, 5 µM: 91.6 ± 2.2%
[6]; plasma, No Esterase Inhibitors, pH 7.4, pooled human plasma
  remaining at 3 h, 5 µM: 94.2 ± 6.3%
[3]; from pHLM CLint, well-stirred model with plasma fu, Q 21 mL min^−1 kg^−1
  Predicted In Vivo Hepatic Clearance, CLH: 0.87 ± 0.18 mL/min/kg
[3]; from pHLM incubations
  Hepatic extraction ratio, EH: 0.04 ± 0.009
[3]; human, microsomes, pHLM, alternative microsomal scaling factor 32 mg microsomal protein per gram liver
  CLint scaled at 0.5 µM: 111 mL/min/kg
[3]; human, microsomes, pHLM, alternative microsomal scaling factor 45 mg microsomal protein per gram liver
  CLint scaled at 0.5 µM: 156 mL/min/kg
[3]; human, microsomes, pH 7.4, T1/2 (min), pHLM 0.5 mg mL^−1, 0.5 µM, NADPH, 37 °C, n ≥ 3 ± SD
  half-life at 0.5 µM: 11 ± 2.4 min
[3]; pHLM, 3 min
  % parent compound remaining, Average: 70.2%
[3]; pHLM, 6 min
  % parent compound remaining, Average: 64.2%
[3]; pHLM, 9 min
  % parent compound remaining, Average: 55.8%
[3]; pHLM, 15 min
  % parent compound remaining, Average: 34.3%
[3]; pHLM, 30 min
  % parent compound remaining, Average: 16.4%
[3]; pHLM, n ≥ 3 ± SD
  Microsomal Intrinsic Clearance, CLint micr: 0.135 ± 0.030 mL min^−1 mg Microsomal Protein^−1
[3]; [11]
  Hepatic extraction ratio, EH: 0.03 ± 0.006
  Predicted in vivo hepatic clearance, CLH: 0.54 ± 0.12 mL/min/kg
[3]; [12]
  Hepatic extraction ratio, EH: 0.04 ± 0.008
  Predicted in vivo hepatic clearance, CLH: 0.75 ± 0.16 mL/min/kg
[7]; 10 µg mL^−1, read-out: PPB (%) (converted)
  fraction unbound at 5 h, 10 µg mL^−1: 0.005
[7]; plasma, read-out: Fraction Unbound (fu)
  fraction unbound at 5 h, 10 µg mL^−1: 0.005 ± 0.0008

## CC(C)C(NC(=O)c1nn(Cc2ccc(F)cc2)c2ccccc12)C(N)=O (stereo not shown) [AB-FUBINACA (8), N-(1-amino-3-methyl-1-oxobutan-2-yl)-1-(4-fluorobenzyl)-1H-indazole-3-carboxamide]
[2]
  CLint micr: 11 µL/min/mg
  t1/2: 62.6 min
  CLint: 10.5 mL/min/kg
[1]
  chromatographic logD: 2.81
[3]; pHLM
  CLH prediction lower than literature prediction without PPB: 20 fold
  EH prediction lower than literature prediction without PPB: 17 fold

## CC(C)C(NC(=O)c1nn(CC2CCCCC2)c2ccccc12)C(N)=O (stereo not shown) [AB-[…] (11), N-[1-amino-3-methyl-1-oxobutan-2-yl]-1-(cyclohexylmethyl)-1H-indazole-3-carboxamide]
[1]
  chromatographic logD: 3.71

## CN1CCCCC1Cn1cc(C(=O)c2cccc3ccccc23)c2ccccc21 (stereo not shown) [AM1220]
[8]
  CLint: 169 mL/min/kg
  t1/2: 3.7 min

## C=CCCCn1cc(C(=O)NC(C(=O)OC)C(C)C)c2ccccc21 (stereo not shown) [AMB-4en-PICA (7), methyl 3-methyl-2-[(1-pent-4-enylindole-3-carbonyl)amino] butanoate]
[2]
  t1/2: 2.1 min
  CLint: 291 mL/min/kg
[1]
  chromatographic logD: 3.97

## COC(=O)[C@@H](NC(=O)c1cn(CC2CCCCC2)c2ccccc12)C(C)C [AMB-CHMICA (9), methyl [1-(cyclohexylmethyl)-1H-indole-3-carbonyl]valinate]
[1]
  chromatographic logD: 4.77

## COC(=O)[C@@H](NC(=O)c1nn(Cc2ccc(F)cc2)c2ccccc12)C(C)C [AMB-FUBINACA (1), methyl [1-(4-fluorobenzyl)-1H-indazole-3-carbonyl]valinate]
[1]
  chromatographic logD: 4.28

## Cc1ccc(C(=O)c2cn(CCCCCBr)c3ccccc23)c2ccccc12 [Br-JWH-122]
[8]
  CLint: 497 mL/min/kg
  t1/2: 2.49 min

## Cc1ccc(C(=O)c2cn(CCCCCCl)c3ccccc23)c2ccccc12 [Cl-JWH-122]
[8]
  CLint: 502 mL/min/kg
  t1/2: 2.46 min

## Cc1ccc(C(=O)c2cn(CCCCCI)c3ccccc23)c2ccccc12 [I-JWH-122, (1-(5-iodopentyl)-1H-indol-3-yl)(4-methylnaphthalen-1-yl)methanone]
[8]
  CLint: 235 mL/min/kg
  t1/2: 5.26 min

## CCCCCn1cc(C(=O)c2ccc(C)c3ccccc23)c2ccccc21 [JWH-122, (4-methyl-1-naphthyl)-(1-pentylindol-3-yl)methanone]
[8]
  CLint: 1350 mL/min/kg
  t1/2: 0.95 min

## CCCCCn1cc(C(=O)c2ccc(CC)c3ccccc23)c2ccccc21 [JWH-210, 4-ethylnaphthalen-1-yl-(1-pentylindol-3-yl)methanone]
[9]
  log P: 7.5

## Cc1ccc(C(=O)c2cn(CCCCCF)c3ccccc23)c2ccccc12 [MAM-2201]
[8]
  CLint: 1408 mL/min/kg
  t1/2: 0.88 min

## C=CCCCn1cc(C(=O)NC(C(=O)OC)C(C)(C)C)c2ccccc21 (stereo not shown) [MDMB-4en-PICA (12), methyl 3,3-dimethyl-2-[1-(pent-4-en-1-yl)-1H-indole-3-carboxamido]butanoate]
[1]
  chromatographic logD: 4.4

## CCN(CC)CCOC(=O)c1ccc(N)cc1 [Procaine]
In vitro
  half-life: 6.5 min
  remaining at 3 h: 0.03 ± 0.02%
  remaining at 5 h: 0.08%

## methyl 2-[1-(5-fluoropentyl)-1H-indazole-3-carboxamido]-3,3-dimethylbutanoate [MDMB-FUBINACA (6)]
[1]; CHI log D, determined for the (S)-enantiomer, n = 1
  Experimental Log D7.4: 4.69
